Results taken from US20210106648A1, “SYNERGISTIC COMBINATION OF CHEMOTHERAPY AND PEPTIDE FOR TREATING CANCER” (TOBEBIO Novel Drug Laboratory Co., Ltd., priority 2019, published 2021).
Where a name gives a salt, the structure may show the parent alone. Ends that are not written are not given here.

Tests used:
[1] = tested on: AsPC-1 pancreatic cancer cells; format: in vivo, Balb/c nude mice; details: allostatine-1 2.5 mg/kg daily s.c.; paclitaxel 8 mg/kg weekly i.p.
[2] = tested on: CT26 colon cancer cells; experiment: CT26 colon cancer liver metastasis model; format: in vivo, Balb/c mice; details: allostatine-1 5 mg/kg daily s.c.; CPT-11 100 mg/kg weekly i.p.

Compound | Median survival [1] [days] | median survival days [2] [days]
CC(=O)O[C@H]1C(=O)[C@@]2(C)[C@H]([C@H](OC(=O)c3ccccc3)[C@]3(O)C[C@H](OC(=O)[C@H](O)[C@@H](NC(=O)c4ccccc4)c4ccccc4)C(C)=C1C3(C)C)[C@]1(OC(C)=O)CO[C@@H]1C[C@@H]2O [Paclitaxel] | 108 | –
CCc1c2c(nc3ccc(OC(=O)N4CCC(N5CCCCC5)CC4)cc13)-c1cc3c(c(=O)n1C2)COC(=O)[C@]3(O)CC [CPT-11, Irinotecan hydrochloride] | – | 35.5
HGVSGWGQHGTHG [Allostatine-1, linear 13-amino acid analog peptide of alloferon-1] | 97 | 30
